From the supplement of paper PMC10307832

Tests used:
Test in all cases: relative viability (nuclei count vs DMSO), 5 days (fraction); higher = more cells survive
[1] = compound: CN(c1ncccc1CNc1nc(Nc2ccc3c(c2)CC(=O)N3)ncc1C(F)(F)F)S(C)(=O)=O + COc1cccc2cc(-c3nc([C@H]4CC[C@H](C(=O)O)CC4)n4ncnc(N)c34)[nH]c12 [OSI-027] (partner 0.5 µM)
How it was run: (§1)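 Dosing by pin tool came one day after lung cancer cell lines were seeded in 1536-well plates, using either one drug or a fixed anchor-drug dose plus five library-drug doses (not always all listed) in √10 steps. After 5 days, nuclei were counted on 4× images. Relative viability is treated-well nuclei count divided by vehicle-well nuclei count, and values are medians of duplicate plates.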

[2] = compound: CN(c1ncccc1CNc1nc(Nc2ccc3c(c2)CC(=O)N3)ncc1C(F)(F)F)S(C)(=O)=O + CS(=O)(=O)CCNCc1ccc(-c2ccc3ncnc(Nc4ccc(OCc5cccc(F)c5)c(Cl)c4)c3c2)o1 [Lapatinib] (partner 2 µM)
How it was run: as §1

[3] = compound: CN(c1ncccc1CNc1nc(Nc2ccc3c(c2)CC(=O)N3)ncc1C(F)(F)F)S(C)(=O)=O + C[C@]1(O)C[C@@H](c2nc(-c3ccc4ccc(-c5ccccc5)nc4c3)c3c(N)nccn32)C1 [Linsitinib] (partner 1 µM)
How it was run: as §1

[4] = compound: CN(c1ncccc1CNc1nc(Nc2ccc3c(c2)CC(=O)N3)ncc1C(F)(F)F)S(C)(=O)=O + Cc1nc(NC(=O)N2CCC[C@H]2C(N)=O)sc1-c1ccnc(C(C)(C)C(F)(F)F)c1 [Alpelisib] (partner 2 µM)
How it was run: as §1

| Cell Line | relative viability ([1]; first compound 0.01 µM) | relative viability ([1]; first compound 0.03162 µM) | relative viability ([1]; first compound 0.1 µM) | relative viability ([1]; first compound 0.3162 µM) | relative viability ([1]; first compound 1 µM) | relative viability ([2]; first compound 0.01 µM) | relative viability ([2]; first compound 0.03162 µM) | relative viability ([2]; first compound 0.1 µM) | relative viability ([2]; first compound 0.3162 µM) | relative viability ([2]; first compound 1 µM) | relative viability ([3]; first compound 0.01 µM) | relative viability ([3]; first compound 0.03162 µM) | relative viability ([3]; first compound 0.1 µM) | relative viability ([3]; first compound 0.3162 µM) | relative viability ([3]; first compound 1 µM) | relative viability ([4]; first compound 0.01 µM) | relative viability ([4]; first compound 0.03162 µM) | relative viability ([4]; first compound 0.1 µM) | relative viability ([4]; first compound 0.3162 µM) | relative viability ([4]; first compound 1 µM) |
| --- | --- | --- | --- | --- | --- | --- | --- | --- | --- | --- | --- | --- | --- | --- | --- | --- | --- | --- | --- | --- |
| 201T | 0.658 | 0.702 | 0.741 | 0.663 | 0.648 | 1.08 | 1 | 0.962 | 0.924 | 0.988 | 1.05 | 1.04 | 1.04 | 1.01 | 0.995 | 1.01 | 0.989 | 0.971 | 0.968 | 0.976 |
| A549 |  |  |  |  |  | 1 | 1.06 | 0.971 | 0.928 | 0.915 | 0.526 | 0.761 | 0.558 | 0.606 | 0.694 | 0.754 | 0.905 | 0.726 | 0.906 | 0.712 |
| A-427 | 0.472 | 0.553 | 0.504 | 0.44 | 0.475 | 1.05 | 1.05 | 1 | 1.04 | 1.02 | 1.12 | 1.12 | 1.1 | 1.14 | 1.06 | 1.09 | 1.15 | 1.02 | 1.15 | 1.08 |
| ABC-1 | 0.424 | 0.537 | 0.432 | 0.498 | 0.499 | 1.29 | 1.15 | 1.36 | 1.13 | 1.21 | 0.908 | 0.914 | 0.75 | 0.814 | 0.967 | 0.777 | 1.22 | 1.36 | 0.963 | 0.913 |
| BEN | 0.294 | 0.293 | 0.276 | 0.304 | 0.284 | 0.699 | 0.689 | 0.654 | 0.715 | 0.686 | 0.912 | 0.972 | 0.938 | 0.879 | 1.04 | 1.02 | 1.2 | 1.02 | 1.05 | 1.03 |
| CAL-12T | 0.725 | 0.874 | 0.58 | 0.719 | 0.514 | 0.65 | 0.663 | 0.43 | 0.591 | 0.627 | 0.886 | 0.861 | 0.705 | 0.616 | 0.639 | 1.12 | 1.58 | 1.26 | 1.16 | 0.946 |
| COR-L23 | 0.782 | 0.722 | 0.681 | 0.756 | 0.642 | 0.924 | 1.16 | 0.92 | 0.883 | 0.628 | 0.853 | 0.983 | 0.818 | 1.07 | 0.735 | 0.742 | 0.846 | 0.713 | 0.647 | 0.702 |
| COR-L 105 | 0.668 | 0.784 | 0.747 | 0.615 | 0.583 | 0.335 | 0.387 | 0.355 | 0.355 | 0.341 | 0.964 | 1 | 1.09 | 0.882 | 0.67 | 1.06 | 1.16 | 1.13 | 0.887 | 0.872 |
| Calu-6 |  |  |  |  |  | 1.05 | 1.12 | 1 | 1 | 0.912 | 1.05 | 0.992 | 0.892 | 0.955 | 0.914 | 0.914 | 0.977 | 0.903 | 1.55 | 0.765 |
| ChaGo-K-1 | 0.537 | 0.566 | 0.544 | 0.538 | 0.659 |  |  |  |  |  |  |  |  |  |  |  |  |  |  |  |
| EBC-1 |  |  |  |  |  | 0.217 | 0.187 | 0.248 | 0.204 | 0.2 | 0.951 | 1.01 | 0.889 | 0.91 | 0.788 | 0.869 | 0.885 | 0.877 | 0.948 | 0.654 |
| EKVX | 0.757 | 0.711 | 0.618 | 0.685 | 0.614 | 0.182 | 0.188 | 0.218 | 0.119 | 0.514 | 0.94 | 1.13 | 0.85 | 0.931 | 0.882 | 0.771 | 0.905 | 0.859 | 0.812 | 0.864 |
| EMC-BAC-2 | 0.377 | 0.364 | 0.339 | 0.418 | 0.371 | 0.956 | 0.902 | 0.876 | 0.899 | 0.838 | 0.797 | 0.838 | 0.792 | 0.79 | 0.804 | 0.761 | 0.811 | 0.68 | 0.698 | 0.676 |
| EPLC-272H | 0.276 | 0.294 | 0.305 | 0.344 | 0.279 | 0.921 | 0.914 | 0.884 | 0.965 | 1.09 | 1.21 | 1.12 | 1.22 | 1.33 | 1.12 | 0.811 | 1.1 | 0.781 | 0.885 | 0.927 |
| H3255 | 0.606 | 0.611 | 0.488 | 0.568 | 0.598 | 0.24 | 0.221 | 0.237 | 0.192 | 0.252 | 0.924 | 0.949 | 0.988 | 0.912 | 0.922 | 1.04 | 0.853 | 0.617 | 0.468 | 0.772 |
| HARA | 0.54 | 0.481 | 0.524 | 0.612 | 0.55 | 0.763 | 0.692 | 0.616 | 0.678 | 0.665 | 0.945 | 1.06 | 1.03 | 0.978 | 0.856 | 0.733 | 0.79 | 0.744 | 0.695 | 0.625 |
| HCC-15 | 0.748 | 0.699 | 0.675 | 0.626 | 0.527 | 0.876 | 0.905 | 0.72 | 0.775 | 0.723 | 0.898 | 0.894 | 0.802 | 0.86 | 0.688 | 0.849 | 0.892 | 0.819 | 0.785 | 0.779 |
| HCC-44 | 0.575 | 0.491 | 0.496 |  | 0.703 | 1.09 | 0.986 | 0.987 | 0.993 | 0.972 | 0.73 | 0.688 | 0.722 | 0.714 | 0.664 | 0.872 | 0.792 | 0.789 | 0.824 | 0.778 |
